{
  "source": "patent US11591355B2",
  "about": "(Peloton Therapeutics, Inc., priority 2017, dated 2023)",
  "key": {"Human CD73": {"target": "T1, Human CD73 (Homo sapiens, UniProt P21589)", "T1 construct": "purchased R&D Systems; host or cells: CHO cells", "T1 sequence (P21589 27-549)": "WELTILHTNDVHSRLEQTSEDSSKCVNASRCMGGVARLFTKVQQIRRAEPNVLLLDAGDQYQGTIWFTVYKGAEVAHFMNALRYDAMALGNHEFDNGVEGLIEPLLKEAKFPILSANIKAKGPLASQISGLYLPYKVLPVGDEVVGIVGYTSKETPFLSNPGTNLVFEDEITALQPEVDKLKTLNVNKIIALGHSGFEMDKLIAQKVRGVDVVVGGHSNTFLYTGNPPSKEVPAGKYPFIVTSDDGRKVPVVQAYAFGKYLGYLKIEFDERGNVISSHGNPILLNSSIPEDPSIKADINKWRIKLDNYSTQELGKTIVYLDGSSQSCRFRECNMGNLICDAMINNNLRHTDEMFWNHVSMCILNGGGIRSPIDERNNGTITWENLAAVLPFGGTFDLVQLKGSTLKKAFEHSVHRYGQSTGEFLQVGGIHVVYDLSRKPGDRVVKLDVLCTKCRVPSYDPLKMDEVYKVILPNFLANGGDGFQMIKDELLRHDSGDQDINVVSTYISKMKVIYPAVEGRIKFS", "assay": "CD73 Enzyme Assay", "format": "biochemical", "conditions": "0.25 nM hCD73, 25 μM AMP, kinetic read at 360 nm; read-out: CD73 Enzyme Assay IC50"}, "[1]": {"target": "T2, CD73 on U138 human neuroglioma cells (Homo sapiens, UniProt P21589)", "T2 construct": "U138 cells were obtained from ATCC and cultured in DMEM with 10% FBS; host or cells: U138 human neuroglioma cells", "T2 sequence (P21589 27-549)": "T1 sequence (P21589 27-549)", "assay": "CD73 Cell-Based Assay", "conditions": "U138 cells, AMP substrate, 2 hours at 37° C., inorganic phosphate by malachite green", "procedure,_shortened": "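Whole U138 cells washed free of phosphate were incubated with 200 μM AMP (mixture concentration before equal-volume addition) plus compound in HEPES-buffered saline, pH 7.4, for 2 h at 37 °C, 5% CO2. Adenosine-forming activity read as inorganic phosphate released into supernatant by malachite green.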"}},
  "data": [
    {"smiles": "C[C@@H](Nc1nc(C#N)nc2c1ccn2[C@@H]1O[C@H](COCP(=O)(O)O)[C@@H](O)[C@H]1O)c1ccccc1F", "note": "[Compound 88, [(2R,3S,4R,5R)-5-[2-cyano-4-[[(1R)-1-(2-fluorophenyl)ethyl]-amino]pyrrolo[2,3-d]-pyrimidin-7-yl]-3,4-dihydroxy-tetrahydro-furan-2-yl]methoxy-methylphosphonic acid]", "values": [
      {"measurement": "IC50", "setting": "Human CD73", "value": "< 10", "unit": "nM"},
      {"measurement": "IC50", "setting": "[1]", "value": "< 10", "unit": "nM"}
    ]},
    {"smiles": "C[C@@H](Nc1nc(Cl)nc2c1ccn2[C@@H]1O[C@H](COCP(=O)(O)O)[C@@H](O)[C@H]1O)c1ccc(C#N)cc1", "note": "[Compound 89, [(2R,3S,4R,5R)-5-[2-chloro-4-[[(1R)-1-(4-cyanophenyl)ethyl]-amino]pyrrolo[2,3-d]-pyrimidin-7-yl]-3,4-dihydroxy-tetrahydro-furan-2-yl]methoxy-methylphosphonic acid]", "values": [
      {"measurement": "IC50", "setting": "Human CD73", "value": "< 10", "unit": "nM"},
      {"measurement": "IC50", "setting": "[1]", "value": "< 10", "unit": "nM"}
    ]},
    {"smiles": "Cc1ccc([C@H](C)Nc2nc(Cl)nc3c2ccn3[C@@H]2O[C@H](COCP(=O)(O)O)[C@@H](O)[C@H]2O)cc1", "note": "[Compound 90, [(2R,3S,4R,5R)-5-[2-chloro-4-[[(1S)-1-(p-tolyl)ethyl]amino]-pyrrolo[2,3-d]-pyrimidin-7-yl]-3,4-dihydroxy-tetrahydro-furan-2-yl]methoxy-methylphosphonic acid]", "values": [
      {"measurement": "IC50", "setting": "Human CD73", "value": "< 10", "unit": "nM"},
      {"measurement": "IC50", "setting": "[1]", "value": "< 10", "unit": "nM"}
    ]},
    {"smiles": "Cc1ccc([C@H](C)Nc2nc(C#N)nc3c2ccn3[C@@H]2O[C@H](COCP(=O)(O)O)[C@@H](O)[C@H]2O)cc1", "note": "[Compound 91, [(2R,3S,4R,5R)-5-[2-cyano-4-[[(1S)-1-(p-tolyl)ethyl]amino]-pyrrolo[2,3-d]-pyrimidin-7-yl]-3,4-dihydroxy-tetrahydro-furan-2-yl]methoxy-methylphosphonic acid]", "values": [
      {"measurement": "IC50", "setting": "Human CD73", "value": "< 10", "unit": "nM"},
      {"measurement": "IC50", "setting": "[1]", "value": "< 10", "unit": "nM"}
    ]},
    {"smiles": "CC(C)Nc1nc(Cl)nc2c1ccn2[C@@H]1O[C@H](COCP(=O)(O)O)[C@@H](O)[C@H]1O", "note": "[Compound 92, [(2R,3S,4R,5R)-5-[2-chloro-4-(isopropyl-amino)pyrrolo[2,3-d]-pyrimidin-7-yl]-3,4-dihydroxy-tetrahydro-furan-2-yl]methoxy-methylphosphonic acid]", "values": [
      {"measurement": "IC50", "setting": "Human CD73", "value": "< 10", "unit": "nM"},
      {"measurement": "IC50", "setting": "[1]", "value": "< 10", "unit": "nM"}
    ]},
    {"smiles": "CN(C)c1nc(Cl)nc2c1ccn2[C@@H]1O[C@H](COCP(=O)(O)O)[C@@H](O)[C@H]1O", "note": "[Compound 93, [(2R,3S,4R,5R)-5-[2-chloro-4-(dimethyl-amino)pyrrolo[2,3-d]-pyrimidin-7-yl]-3,4-dihydroxy-tetrahydro-furan-2-yl]methoxy-methylphosphonic acid]", "values": [
      {"measurement": "IC50", "setting": "Human CD73", "value": "< 10", "unit": "nM"},
      {"measurement": "IC50", "setting": "[1]", "value": "10 to 100", "unit": "nM"}
    ]},
    {"smiles": "C[C@@H](Nc1nc(Cl)nc2c1ccn2[C@@H]1O[C@H](COCP(=O)(O)O)[C@@H](O)[C@H]1O)c1ccc(Cl)cc1", "note": "[Compound 94, [(2R,3S,4R,5R)-5-[2-chloro-4-[[(1R)-1-(4-chlorophenyl)ethyl]-amino]pyrrolo[2,3-d]-pyrimidin-7-yl]-3,4-dihydroxy-tetrahydro-furan-2-yl]methoxy-methylphosphonic acid]", "values": [
      {"measurement": "IC50", "setting": "Human CD73", "value": "< 10", "unit": "nM"},
      {"measurement": "IC50", "setting": "[1]", "value": "< 10", "unit": "nM"}
    ]},
    {"smiles": "C[C@@H](Nc1nc(C#N)nc2c1ccn2[C@@H]1O[C@H](COCP(=O)(O)O)[C@@H](O)[C@H]1O)c1ccc(C#N)cc1", "note": "[Compound 95, [(2R,3S,4R,5R)-5-[2-cyano-4-[[(1R)-1-(4-cyanophenyl)ethyl]-amino]pyrrolo[2,3-d]-pyrimidin-7-yl]-3,4-dihydroxy-tetrahydro-furan-2-yl]methoxy-methylphosphonic acid]", "values": [
      {"measurement": "IC50", "setting": "Human CD73", "value": "10 to 100", "unit": "nM"},
      {"measurement": "IC50", "setting": "[1]", "value": "10 to 100", "unit": "nM"}
    ]},
    {"smiles": "CNc1nc(Cl)nc2c1ccn2[C@@H]1O[C@H](COCP(=O)(O)O)[C@@H](O)[C@H]1O", "note": "[Compound 96, [(2R,3S,4R,5R)-5-[2-chloro-4-(methyl-amino)pyrrolo[2,3-d]-pyrimidin-7-yl]-3,4-dihydroxy-tetrahydro-furan-2-yl]methoxy-methylphosphonic acid]", "values": [
      {"measurement": "IC50", "setting": "Human CD73", "value": "100 to 1000", "unit": "nM"},
      {"measurement": "IC50", "setting": "[1]", "value": "100 to 1000", "unit": "nM"}
    ]}
  ]
}
